# US12545637B2, “Extrahepatic targeted cationic lipid compound with high efficiency and low toxicity and its composition” (BEIJING YOUCARE KECHUANG PHARMACEUTICAL TECHNOLOGY CO., LTD., priority 2023, dated 2026)
# Values joined by “and” are separate entries in the source; they are usually repeats but may differ in a detail not shown here. Identical values can stand only once.
# Legend:
# [1] = Particle size and polydispersity index (PDI) of lipid nanoparticles by dynamic light scattering; assay type: physicochemical; details: for PDI: LNP formulation of the cationic lipid, 25° C.; for Particle size: LNP formulation of the cationic lipid/DSPC/cholesterol/DMG-PEG2000 49:10:39.5:1.5, 25° C.
# Protocol: The particle size and polydispersity index (PDI) were determined by dynamic light scattering using Malvern laser particle size analyzer.
# 10 μL of the liposome solution was weighed, diluted to 1 mL with RNase-free deionized water, and added to the sample pool. Each sample was measured in triplicate. The measurement conditions were: […] scattering angle, and 25° C.
# [2] = Detection of encapsulation efficiency, drug loading concentration and total RNA concentration (RiboGreen); assay type: physicochemical; details: for Drug loading concentration / Encapsulation efficiency / Total RNA concentration: LNP formulation prepared from the cationic lipid; for encapsulation efficiency higher than ALC-0315: difference vs ALC-0315; for encapsulation efficiency higher than HIMA: difference vs HIMA (HHMA); for encapsulation efficiency higher than SM-102: difference vs SM-102; for encapsulation efficiency higher than YK-009: difference vs YK-009; for encapsulation efficiency higher than compound 21: difference vs compound 21; for encapsulation efficiency higher than compound 23: difference vs compound 23; for drug loading concentration, times that of ALC-0315 / total RNA concentration, times that of ALC-0315: ratio vs ALC-0315; for drug loading concentration, times that of HIMA / total RNA concentration, times that of HIMA: ratio vs HIMA (HHMA); for drug loading concentration, times that of SM-102 / total RNA concentration, times that of SM-102: ratio vs SM-102; for drug loading concentration, times that of YK-009 / total RNA concentration, times that of YK-009: ratio vs YK-009; for drug loading concentration, times that of compound 21 / total RNA concentration, times that of compound 21: ratio vs compound 21; for drug loading concentration, times that of compound 23 / total RNA concentration, times that of compound 23: ratio vs compound 23
# Procedure, shortened: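 Samples were diluted in 1×TE to about […], combined with TE and 0.1% Triton X-100 buffers, and held at 37 °C for 10 minutes before dye addition.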
# [3] = tested on: 293T cells; assay: Cell survival rate assay (CCK-8); assay type: cell-based; details: for Cell survival rate: LNP with 1.5 μg Fluc-mRNA, 24 hours, CCK-8; for cell survival rate higher than ALC-0315: difference vs ALC-0315; for cell survival rate higher than HIMA: difference vs HIMA (HHMA); for cell survival rate higher than Lipofectamine 3000: difference vs Lipofectamine 3000; for cell survival rate higher than SM-102: difference vs SM-102; for cell survival rate higher than YK-404: difference vs YK-404; for cell survival rate higher than YK-405: difference vs YK-405; for cell survival rate higher than YK-406: difference vs YK-406; for cell survival rate higher than YK-408: difference vs YK-408; for cell survival rate higher than YK-409: difference vs YK-409; for cell survival rate higher than YK-410: difference vs YK-410; for cell survival rate higher than YK-411: difference vs YK-411; for cell survival rate higher than YK-412: difference vs YK-412; for cell survival rate higher than YK-413: difference vs YK-413; for cell survival rate higher than YK-414: difference vs YK-414; for cell survival rate higher than YK-415: difference vs YK-415; for cell survival rate higher than YK-416: difference vs YK-416; for cell survival rate higher than YK-417: difference vs YK-417; for cell survival rate higher than YK-418: difference vs YK-418; for cell survival rate higher than YK-419: difference vs YK-419; for cell survival rate higher than YK-420: difference vs YK-420; for cell survival rate higher than YK-421: difference vs YK-421; for cell survival rate higher than YK-424: difference vs YK-424; for cell survival rate higher than compound 21: difference vs compound 21; for cell survival rate higher than compound 23: difference vs compound 23; for cytotoxicity reduced compared with YK-411: rounded summary statement vs YK-411
# Procedure, shortened: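 293T cells seeded at 10,000 cells/well, cultured overnight, then exposed 24 h to LNP carrying 1.5 μg Fluc-mRNA (cationic:neutral:structured:PEG-type lipid 49:10:39.5:1.5) or Lipofectamine 3000. Viability read by CCK-8, 1 h incubation, absorbance at 450 nm.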
# [4] = tested on: female BALB/C mice; assay: Distribution of liposomes in mice (protein expression in liver, spleen, lung, heart and kidney); assay type: in vivo; details: mouse, in vivo
# Protocol: The LNP formulation (prepared according to Example 4) containing […] Fluc-mRNA was injected intramuscularly into female BALB/C mice aged 4-6 weeks and weighed 17-19 g, and the mice were intraperitoneally injected with fluorescent imaging substrate at specific time points after administration (6h, 24 h, 48h and 7d), where the mice were allowed to free move for 5 minutes, and then the average radiation intensity (corresponding to fluorescence expression intensity) of the protein expression of the mRNA carried by the LNP in the mice was detected by the IVIS Spectrum small animal in vivo imaging system.
# Current mRNA vaccines usually express proteins in muscle.
structure (smiles),measurement,setting,value
CCCCCCCCC(CCCCCCCC)C(=O)OCCCCCCN(CCO)CCN(CCO)CCCCCCOC(=O)C(CCCCCCCC)CCCCCCCC [YK-402],PDI,[1],17.1%
same,Particle size,[1],155 nm
same,Drug loading concentration,[2],37.67 µg/mL
same,Encapsulation efficiency,[2],91.0%
same,Total RNA concentration,[2],40.09 µg/mL
same,encapsulation efficiency higher than ALC-0315,[2],27.7%
same,encapsulation efficiency higher than HIMA,[2],30.8%
same,encapsulation efficiency higher than SM-102,[2],28.1%
same,encapsulation efficiency higher than YK-009,[2],27.6%
same,encapsulation efficiency higher than compound 21,[2],33.0%
same,encapsulation efficiency higher than compound 23,[2],34.8%
same,"drug loading concentration, times that of ALC-0315",[2],1.40
same,"total RNA concentration, times that of ALC-0315",[2],1.06
same,"drug loading concentration, times that of HIMA",[2],1.15
same,"total RNA concentration, times that of HIMA",[2],1.10
same,"drug loading concentration, times that of SM-102",[2],1.42
same,"total RNA concentration, times that of SM-102",[2],1.11
same,"drug loading concentration, times that of YK-009",[2],1.37
same,"total RNA concentration, times that of YK-009",[2],1.04
same,"drug loading concentration, times that of compound 21",[2],1.71
same,"total RNA concentration, times that of compound 21",[2],1.39
same,"drug loading concentration, times that of compound 23",[2],1.88
same,"total RNA concentration, times that of compound 23",[2],1.29
same,Cell survival rate,[3],72.70%
same,cell survival rate higher than ALC-0315,[3],25.49%
same,cell survival rate higher than HIMA,[3],8.43%
same,cell survival rate higher than Lipofectamine 3000,[3],51.04%
same,cell survival rate higher than SM-102,[3],4.80%
same,cell survival rate higher than YK-404,[3],30.58%
same,cell survival rate higher than YK-405,[3],30.84%
same,cell survival rate higher than YK-406,[3],47.74%
same,cell survival rate higher than YK-408,[3],30.39%
same,cell survival rate higher than YK-409,[3],26.59%
same,cell survival rate higher than YK-410,[3],27.78%
same,cell survival rate higher than YK-411,[3],56.37%
same,cell survival rate higher than YK-412,[3],18.56%
same,cell survival rate higher than YK-413,[3],25.50%
same,cell survival rate higher than YK-414,[3],43.95%
same,cell survival rate higher than YK-415,[3],11.54%
same,cell survival rate higher than YK-416,[3],31.73%
same,cell survival rate higher than YK-417,[3],51.36%
same,cell survival rate higher than YK-418,[3],51.65%
same,cell survival rate higher than YK-419,[3],33.78%
same,cell survival rate higher than YK-420,[3],37.11%
same,cell survival rate higher than YK-421,[3],36.99%
same,cell survival rate higher than YK-424,[3],44.77%
same,cell survival rate higher than compound 21,[3],4.86%
same,cell survival rate higher than compound 23,[3],3.59%
same,cytotoxicity reduced compared with YK-411,[3],50%
same,protein expression in the liver,"[4]; female, BALB/C, 6 h",reduced compared with SM-102
same,protein expression in the liver,[4],had protein expression in the liver
same,protein expression in the spleen,[4],had protein expression in the spleen
CCCCCCCCCCCOC(=O)CCCN(CCO)CCN(CCO)CCCCCC(=O)OC(CCCCCCCC)CCCCCCCC [YK-407],PDI,[1],16.6%
same,Particle size,[1],162 nm
same,Drug loading concentration,[2],35.67 µg/mL
same,Encapsulation efficiency,[2],85.2%
same,Total RNA concentration,[2],40.77 µg/mL
same,encapsulation efficiency higher than ALC-0315,[2],21.9%
same,encapsulation efficiency higher than HIMA,[2],25.0%
same,encapsulation efficiency higher than SM-102,[2],22.3%
same,encapsulation efficiency higher than YK-009,[2],21.8%
same,encapsulation efficiency higher than compound 21,[2],27.2%
same,encapsulation efficiency higher than compound 23,[2],29.0%
same,"drug loading concentration, times that of ALC-0315",[2],1.33
same,"total RNA concentration, times that of ALC-0315",[2],1.08
same,"drug loading concentration, times that of HIMA",[2],1.09
same,"total RNA concentration, times that of HIMA",[2],1.12
same,"drug loading concentration, times that of SM-102",[2],1.34
same,"total RNA concentration, times that of SM-102",[2],1.13
same,"drug loading concentration, times that of YK-009",[2],1.30
same,"total RNA concentration, times that of YK-009",[2],1.06
same,"drug loading concentration, times that of compound 21",[2],1.62
same,"total RNA concentration, times that of compound 21",[2],1.41
same,"drug loading concentration, times that of compound 23",[2],1.78
same,"total RNA concentration, times that of compound 23",[2],1.31
same,Cell survival rate,[3],71.37%
same,cell survival rate higher than ALC-0315,[3],24.16%
same,cell survival rate higher than HIMA,[3],7.10%
same,cell survival rate higher than Lipofectamine 3000,[3],49.71%
same,cell survival rate higher than SM-102,[3],3.47%
same,cell survival rate higher than YK-404,[3],29.25%
same,cell survival rate higher than YK-405,[3],29.51%
same,cell survival rate higher than YK-406,[3],46.41%
same,cell survival rate higher than YK-408,[3],29.06%
same,cell survival rate higher than YK-409,[3],25.26%
same,cell survival rate higher than YK-410,[3],26.45%
same,cell survival rate higher than YK-411,[3],55.04%
same,cell survival rate higher than YK-412,[3],17.23%
same,cell survival rate higher than YK-413,[3],24.17%
same,cell survival rate higher than YK-414,[3],42.62%
same,cell survival rate higher than YK-415,[3],10.21%
same,cell survival rate higher than YK-416,[3],30.40%
same,cell survival rate higher than YK-417,[3],50.03%
same,cell survival rate higher than YK-418,[3],50.32%
same,cell survival rate higher than YK-419,[3],32.45%
same,cell survival rate higher than YK-420,[3],35.78%
same,cell survival rate higher than YK-421,[3],35.66%
same,cell survival rate higher than YK-424,[3],43.44%
same,cell survival rate higher than compound 21,[3],3.53%
same,cell survival rate higher than compound 23,[3],2.26%
same,cytotoxicity reduced compared with YK-411,[3],50% and 55%
same,protein expression in the liver,[4],had no protein expression in the liver
same,protein expression in the spleen,[4],had protein expression in the spleen
